Laboratory results as given in patent US20080139607A1, “New Compounds” (ASTRAZENECA AB, priority 2006, published 2008).
pIC50: −log10 of the molar value.

Each compound was assayed against Recombinant human PAI-1 (Homo sapiens, UniProt P05121) (assay: Plasma clot lysis assay for testing of PAI-1 inhibitors (clot lysis in platelet-poor plasma)). Conditions: concentration at which clot lysis time is halved (pIC50=-log IC50); platelet-poor plasma 50%, PAI-1 10-13 ng/mL, t-PA 34 ng/mL, 37° C.
Type: biochemical
Procedure: Plasma Clot Lysis Assay for Testing of PAI-1 Inhibitors
CaCl2, p.a. Stock solution 0.1 M in water.
PAI-1 inhibitors dissolved in 100% DMSO.
Experimental Procedures—Clot Lysis in Platelet-Poor Plasma
Blood from healthy fat-fasting volunteers was collected into 0.13 M trisodium citrate, 9 parts blood to 1 part anticoagulant. The tubes were centrifuged at 2000×g, 20 min, at RT. The supernatant, ie, the platelet poor plasma was pooled, aliquoted and frozen at −85° C. until used. At the day of experiment the plasma was thawed in a water bath and temperated to 37° C. All other constituents, except t-PA, were prewarmed to 37° C. To each well on a microtiter plate, 25 μL CaCl2, 25 μL PAI-1 or 25 μL PAI-1 vehicle, 20 μL saline and 5 μL drug or 5 μL vehicle (100% DMSO) were added. Plasma was mixed with cold t-PA solution in the relation 4 parts plasma with 1 part t-PA, just before adding 125 μL of this mixture to each well. The final concentration was 12.5 mM for CaCl2, 10-13 ng/mL for PAI-1, 34 ng/mL for t-PA, and the compounds were tested at a final concentration range 0.1 nM to 0.25 mM. The final plasma concentration was 50%, as a result of the different additives. The plate, covered with a plastic lid, was placed in a Microplate reader (Molecular Devices, US) and gently shaken. The change in turbidity was immediately monitored as a change in absorbance at 405 nm at 37° C. Data points were collected at intervals of 2 min, during a period of 10 h. After finished reading, the absorbance data were transformed into files containing the time and absorbance values for each well. The clot longevity, ie, the time the clot exists, was determined as the time between clot formation, ie, positive Vmax, and clot lysis, ie, negative Vmax. The effect of the drugs, ie, shortening of the longevity for the clot, was expressed as the concentration at which a halving of the clot lysis time was reached, the IC50 (pIC50=−log IC50). Control clot lysis time, set to 100%, was determined in the presence of PAI-1, and the maximal effect, ie, the shortest lysis time that can be reached under defined conditions in this system, in the absence of PAI-1 was set to 0%.
Compounds having a pIC50 higher than 4 were considered as being active.

Recombinant human PAI-1, sequence (P05121 24-402): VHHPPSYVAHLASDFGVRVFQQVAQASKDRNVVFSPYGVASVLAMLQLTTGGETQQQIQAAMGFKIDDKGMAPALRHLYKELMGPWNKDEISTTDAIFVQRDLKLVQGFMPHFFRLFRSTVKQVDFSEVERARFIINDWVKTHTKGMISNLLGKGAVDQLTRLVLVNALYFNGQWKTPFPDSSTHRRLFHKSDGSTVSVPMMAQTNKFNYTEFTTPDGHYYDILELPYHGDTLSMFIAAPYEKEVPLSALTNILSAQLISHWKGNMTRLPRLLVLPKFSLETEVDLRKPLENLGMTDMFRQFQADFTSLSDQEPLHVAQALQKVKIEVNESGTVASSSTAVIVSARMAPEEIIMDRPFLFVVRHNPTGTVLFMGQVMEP

| Structure (SMILES) | pIC50 |
| --- | --- |
| CCCCCCCc1cc(=O)n2c(c1-c1ccc(F)c(F)c1)SC[C@H]2C(=O)O [Example 1, (3R)-8-(3,4-Difluoro-phenyl)-7-heptyl-5-oxo-2,3-dihydro-5H-thiazolo[3,2-a]pyridine-3-carboxylic acid] | 4.80 |
| CCCCCCCc1cc(=O)n2c(c1-c1ccc(F)c(F)c1)SC[C@H]2C(=O)NS(C)(=O)=O [Example 2, (3R)—N-[8-(3,4-Difluoro-phenyl)-7-heptyl-5-oxo-2,3-dihydro-5H-thiazolo[3,2-a]pyridine-3-carbonyl]-methanesulfonamide] | 5.00 |
| CCCCCCCc1cc(=O)n([C@@H](C)C(=O)O)cc1-c1ccc(F)c(F)c1 [Example 3, (2S)-2-[5-(3,4-Difluoro-phenyl)-4-heptyl-2-oxo-2H-pyridin-1-yl]-propionic acid] | 4.90 |
| CCCCCCCc1cc(=O)n2c(c1-c1ccc(F)c(F)c1)SC[C@@H]2C(N)=O [Example 4, (3S)-8-(3,4-Difluoro-phenyl)-7-heptyl-5-oxo-2,3-dihydro-5H-thiazolo[3,2-a]pyridine-3-carboxylic acid amide] | 4.30 |
| CCCCCCCc1cc(=O)n2c(c1-c1ccc(F)c(F)c1)SC[C@H]2c1nnn[nH]1 [Example 5, (3R)-8-(3,4-Difluoro-phenyl)-7-heptyl-3-(1H-tetrazol-5-yl)-2,3-dihydro-thiazolo[3,2-a]pyridin-5-one] | 4.60 |
| CCCCCCCc1c(-c2ccc(F)c(F)c2)c2n(c(=O)c1C(=O)O)[C@H](C(=O)OC)CS2 [Example 6, (3R)-8-(3,4-Difluoro-phenyl)-7-heptyl-5-oxo-2,3-dihydro-5H-thiazolo[3,2-a]pyridine-3,6-dicarboxylic acid 3-methyl ester] | 4.70 |
| CCCCCCCc1cc(=O)n2c(c1-c1cccc(C(F)(F)F)c1)SC[C@H]2C(=O)O [Example 7, (3R)-7-Heptyl-5-oxo-8-(3-trifluoromethyl-phenyl)-2,3-dihydro-5H-thiazolo[3,2-a]pyridine-3-carboxylic acid] | 4.90 |
| CCCCCCCc1cc(=O)n2c(c1-c1cccc(C(F)(F)F)c1)SC[C@H]2C(=O)NS(=O)(=O)c1ccccc1 [Example 8, (3R)—N-[7-Heptyl-5-oxo-8-(3-trifluoromethyl-phenyl)-2,3-dihydro-5H-thiazolo[3,2-a]pyridine-3-carbonyl]-benzenesulfonamide] | 5.60 |
| CCCCc1cc(=O)n2c(c1-c1cccc(C(F)(F)F)c1)SC[C@H]2C(=O)O [Example 9, (3R)-7-Butyl-5-oxo-8-(3-trifluoromethyl-phenyl)-2,3-dihydro-5H-thiazolo[3,2-a]pyridine-3-carboxylic acid] | 4.40 |
| CCCCCCCc1c(-c2cccc(C(F)(F)F)c2)c2n(c(=O)c1[N+](=O)[O-])[C@H](C(=O)O)CS2 [Example 10, (3R)-7-Heptyl-6-nitro-5-oxo-8-(3-trifluoromethyl-phenyl)-2,3-dihydro-5H-thiazolo[3,2-a]pyridine-3-carboxylic acid] | 5.40 |
| CCCCCCCc1cc(=O)n2c(c1-c1ccc(F)c(F)c1)SC[C@@H]2C(=O)O [Example 11, (3S)-8-(3,4-Difluoro-phenyl)-7-heptyl-5-oxo-2,3-dihydro-5H-thiazolo[3,2-a]pyridine-3-carboxylic acid] | 5.00 |
| CCCCCCc1c(-c2cccc(C(F)(F)F)c2)c2n(c(=O)c1[N+](=O)[O-])[C@H](C(=O)O)CS2 [Example 12, (3R)-7-Hexyl-6-nitro-5-oxo-8-(3-trifluoromethyl-phenyl)-2,3-dihydro-5H-thiazolo[3,2-a]pyridine-3-carboxylic acid] | 4.90 |
| CC(C)CCc1c(-c2cccc(C(F)(F)F)c2)c2n(c(=O)c1[N+](=O)[O-])[C@H](C(=O)O)CS2 [Example 13, (3R)-7-(3-methylbutyl)-6-nitro-5-oxo-8-(3-trifluoromethyl-phenyl)-2,3-dihydro-5H-thiazolo[3,2-a]pyridine-3-carboxylic acid] | 4.90 |
| CCCCCCc1c(-c2cccc(C(F)(F)F)c2)c2n(c(=O)c1N)[C@H](C(=O)O)CS2 [Example 14, (3R)-6-Amino-7-hexyl-5-oxo-8-(3-trifluoromethyl-phenyl)-2,3-dihydro-5H-thiazolo[3,2-a]pyridine-3-carboxylic acid] | 4.90 |
| CCCCc1c(-c2cccc(C(F)(F)F)c2)c2n(c(=O)c1[N+](=O)[O-])[C@H](C(=O)O)CS2 [Example 15, (3R)-7-Butyl-6-nitro-5-oxo-8-(3-trifluoromethyl-phenyl)-2,3-dihydro-5H-thiazolo[3,2-a]pyridine-3-carboxylic acid] | 4.40 |
| CC(C)CCc1c(-c2cccc(C(F)(F)F)c2)c2n(c(=O)c1N)[C@H](C(=O)O)CS2 [Example 16, (3R)-6-Amino-7-(3-methyl-butyl)-5-oxo-8-(3-trifluoromethyl-phenyl)-2,3-dihydro-5H-thiazolo[3,2-a]pyridine-3-carboxylic acid] | 4.10 |
| CCCCCCCc1c(-c2ccc(F)c(F)c2)c2n(c(=O)c1[N+](=O)[O-])[C@H](C(=O)O)CS2 [Example 17, (3R)-8-(3,4-Difluoro-phenyl)-7-heptyl-6-nitro-5-oxo-2,3-dihydro-5H-thiazolo[3,2-a]pyridine-3-carboxylic acid] | 4.70 |
| CCCCCCCCc1cc(=O)n2c(c1-c1cccc(C(F)(F)F)c1)SC[C@H]2C(=O)O [Example 18, (3R)-7-octyl-5-oxo-8-[3-(trifluoromethyl)phenyl]-2,3-dihydro-5H-[1,3]thiazolo[3,2-a]pyridine-3-carboxylic acid] | 5.40 |
| CCCCCCCc1cc(=O)n2c(c1-c1cccs1)SC[C@H]2C(=O)O [Example 19, (3R)-7-heptyl-5-oxo-8-(2-thienyl)-2,3-dihydro-5H-[1,3]thiazolo[3,2-a]pyridine-3-carboxylic acid] | 5.00 |
| CCCCCCCc1cc(=O)n2c(c1-c1c[nH]c3ccccc13)SC[C@H]2C(=O)O [Example 20, (3R)-7-heptyl-8-(1H-indol-3-yl)-5-oxo-2,3-dihydro-5H-[1,3]thiazolo[3,2-a]pyridine-3-carboxylic acid] | 4.90 |
| O=C(O)[C@@H]1CSc2c(-c3ccccc3)c(CCCOc3ccc(Cl)cc3Cl)cc(=O)n21 [Example 21, (3R)-7-[3-(2,4-dichloro-phenoxy)-propyl]-5-oxo-8-phenyl-2,3-dihydro-51H-thiazolo[3,2-a]pyridine-3-carboxylic acid] | 4.90 |
| CCCCCCCc1cc(=O)n2c(c1-c1ccc(F)c(F)c1)S[C@H](OC)[C@H]2C(=O)O [Example 22, (2S,3R)-8-(3,4-difluorophenyl)-7-heptyl-2-methoxy-5-oxo-2,3-dihydro-5H-[1,3]thiazolo[3,2-a]pyridine-3-carboxylic acid] | 5.00 |
| CCCCCCCc1cc(=O)n2c(C(=O)O)csc2c1-c1ccc(F)c(F)c1 [Example 23, 8-(3,4-difluorophenyl)-7-heptyl-5-oxo-5H-[1,3]thiazolo[3,2-a]pyridine-3-carboxylic acid] | 5.00 |
| CCCCCCCc1cc(=O)n2c(c1-c1ccc(F)c(F)c1)S[C@H](c1ccccc1)[C@H]2C(=O)O [Example 24, (2R,3R)-8-(3,4-difluorophenyl)-7-heptyl-5-oxo-2-phenyl-2,3-dihydro-5H-[1,3]thiazolo[3,2-a]pyridine-3-carboxylic acid] | 5.30 |
| CCCCCCCc1cc(=O)n2c(c1-c1ccc(F)c(F)c1)S[C@H](C)[C@H]2C(=O)O [Example 25, (2R,3R)-8-(3,4-difluorophenyl)-7-heptyl-2-methyl-5-oxo-2,3-dihydro-5H-[1,3]thiazolo[3,2-a]pyridine-3-carboxylic acid] | 5.40 |
